# Species: Rattus norvegicus
# Assay: DrugMatrix - Regimen: Daily Repeat
# Type: toxicity, organism-based, Sprague-Dawley
# Set-up: regimen Daily Repeat, gender Male, age 6-8 weeks
# Details: in vivo, iv, vehicle 100 % SALINE; for ABSOLUTE BASOPHIL / ABSOLUTE EOSINOPHIL / ABSOLUTE LYMPHOCYTE / ABSOLUTE MONOCYTE / ABSOLUTE SEGMENTED NEUTROPHIL / BASOPHIL / EOSINOPHIL / ERYTHROCYTE COUNT / HEMATOCRIT / HEMOGLOBIN / LEUKOCYTE COUNT / LYMPHOCYTE / MEAN CORPUSCULAR HEMOGLOBIN / MEAN CORPUSCULAR HEMOGLOBIN CONCENTRATION / MEAN CORPUSCULAR VOLUME / MONOCYTE / NEUTROPHIL / NUCLEATED RED BLOOD CELLS / PLATELET COUNT: tissue Blood; for ALANINE AMINOTRANSFERASE / ALBUMIN / ALKALINE PHOSPHATASE / ASPARTATE AMINOTRANSFERASE / BLOOD UREA NITROGEN / CARBON DIOXIDE / CHLORIDE / CHOLESTEROL / CREATINE PHOSPHOKINASE / CREATININE / GLUCOSE / LACTATE DEHYDROGENASE / LIPASE / PHOSPHORUS / POTASSIUM / SODIUM / TOTAL BILIRUBIN / TOTAL PROTEIN / URIC ACID: tissue Plasma
# [1] = 0 mg/kg, 72 h, dose level Control, time 3 day
# [2] = 0 mg/kg, 120 h, dose level Control, time 5 day
# [3] = 29 mg/kg, 72 h, dose level Low, time 3 day
smiles,measurement,setting,value
C[n+]1ccccc1/C=N/O.[Cl-] [PRALIDOXIME CHLORIDE],ABSOLUTE BASOPHIL,[1],0 CELLS/uL
same,ABSOLUTE EOSINOPHIL,[1],53.17 CELLS/uL
same,ABSOLUTE LYMPHOCYTE,[1],13731.5 CELLS/uL
same,ABSOLUTE MONOCYTE,[1],186.17 CELLS/uL
same,ABSOLUTE SEGMENTED NEUTROPHIL,[1],1645.83 CELLS/uL
same,BASOPHIL,[1],0%
same,EOSINOPHIL,[1],0.33%
same,ERYTHROCYTE COUNT,[1],5.57 x10E6/uL
same,HEMATOCRIT,[1],36.33%
same,HEMOGLOBIN,[1],13.47 G/DL
same,LEUKOCYTE COUNT,[1],15.62 x10E3/uL
same,LYMPHOCYTE,[1],88.5%
same,MEAN CORPUSCULAR HEMOGLOBIN,[1],24.22 pg
same,MEAN CORPUSCULAR HEMOGLOBIN CONCENTRATION,[1],37.1 G/DL
same,MEAN CORPUSCULAR VOLUME,[1],65.35 fL
same,MONOCYTE,[1],1.17%
same,NEUTROPHIL,[1],10%
same,NUCLEATED RED BLOOD CELLS,[1],0.17 /100WBC
same,PLATELET COUNT,[1],1295.5 x10E3/uL
same,ALANINE AMINOTRANSFERASE,[1],46.83 u/L
same,ALBUMIN,[1],4.37 G/DL
same,ALKALINE PHOSPHATASE,[1],414.33 u/L
same,ASPARTATE AMINOTRANSFERASE,[1],72.5 u/L
same,BLOOD UREA NITROGEN,[1],17 mg/dL
same,CARBON DIOXIDE,[1],23.5 mmol/L
same,CHLORIDE,[1],102 MEQ/L
same,CHOLESTEROL,[1],80.33 mg/dL
same,CREATINE PHOSPHOKINASE,[1],207.83 u/L
same,CREATININE,[1],0.22 mg/dL
same,GLUCOSE,[1],172.17 mg/dL
same,LACTATE DEHYDROGENASE,[1],131 u/L
same,LIPASE,[1],10.33 u/L
same,PHOSPHORUS,[1],11.75 mg/dL
same,POTASSIUM,[1],6.83 MEQ/L
same,SODIUM,[1],145.28 MEQ/L
same,TOTAL BILIRUBIN,[1],0.22 mg/dL
same,TOTAL PROTEIN,[1],6.22 G/DL
same,URIC ACID,[1],1.9 mg/dL
same,ABSOLUTE BASOPHIL,[2],0 CELLS/uL
same,ABSOLUTE EOSINOPHIL,[2],33 CELLS/uL
same,ABSOLUTE LYMPHOCYTE,[2],12184 CELLS/uL
same,ABSOLUTE MONOCYTE,[2],108 CELLS/uL
same,ABSOLUTE SEGMENTED NEUTROPHIL,[2],958.33 CELLS/uL
same,BASOPHIL,[2],0%
same,EOSINOPHIL,[2],0.17%
same,ERYTHROCYTE COUNT,[2],5.9 x10E6/uL
same,HEMATOCRIT,[2],36.58%
same,HEMOGLOBIN,[2],13.33 G/DL
same,LEUKOCYTE COUNT,[2],13.28 x10E3/uL
same,LYMPHOCYTE,[2],91.17%
same,MEAN CORPUSCULAR HEMOGLOBIN,[2],22.67 pg
same,MEAN CORPUSCULAR HEMOGLOBIN CONCENTRATION,[2],36.47 G/DL
same,MEAN CORPUSCULAR VOLUME,[2],62.13 fL
same,MONOCYTE,[2],0.83%
same,NEUTROPHIL,[2],7.83%
same,NUCLEATED RED BLOOD CELLS,[2],0.33 /100WBC
same,PLATELET COUNT,[2],1475.33 x10E3/uL
same,ALANINE AMINOTRANSFERASE,[2],47 u/L
same,ALBUMIN,[2],4.35 G/DL
same,ALKALINE PHOSPHATASE,[2],368.33 u/L
same,ASPARTATE AMINOTRANSFERASE,[2],90.83 u/L
same,BLOOD UREA NITROGEN,[2],15.5 mg/dL
same,CARBON DIOXIDE,[2],26.5 mmol/L
same,CHLORIDE,[2],103.33 MEQ/L
same,CHOLESTEROL,[2],71.83 mg/dL
same,CREATINE PHOSPHOKINASE,[2],585.33 u/L
same,CREATININE,[2],0.19 mg/dL
same,GLUCOSE,[2],171.17 mg/dL
same,LACTATE DEHYDROGENASE,[2],388.83 u/L
same,LIPASE,[2],10.83 u/L
same,PHOSPHORUS,[2],11.75 mg/dL
same,POTASSIUM,[2],6.21 MEQ/L
same,SODIUM,[2],143.7 MEQ/L
same,TOTAL BILIRUBIN,[2],0.17 mg/dL
same,TOTAL PROTEIN,[2],6.17 G/DL
same,URIC ACID,[2],1.98 mg/dL
same,ABSOLUTE BASOPHIL,[3],0 CELLS/uL
same,ABSOLUTE EOSINOPHIL,[3],0 CELLS/uL
same,ABSOLUTE LYMPHOCYTE,[3],13602.67 CELLS/uL
same,ABSOLUTE MONOCYTE,[3],59 CELLS/uL
same,ABSOLUTE SEGMENTED NEUTROPHIL,[3],1538.33 CELLS/uL
same,BASOPHIL,[3],0%
same,EOSINOPHIL,[3],0%
same,ERYTHROCYTE COUNT,[3],5.23 x10E6/uL
same,HEMATOCRIT,[3],33.13%
same,HEMOGLOBIN,[3],12.77 G/DL
same,LEUKOCYTE COUNT,[3],15.2 x10E3/uL
same,LYMPHOCYTE,[3],89.67%
same,MEAN CORPUSCULAR HEMOGLOBIN,[3],24.4 pg
same,MEAN CORPUSCULAR HEMOGLOBIN CONCENTRATION,[3],38.53 G/DL
same,MEAN CORPUSCULAR VOLUME,[3],63.37 fL
same,MONOCYTE,[3],0.33%
same,NEUTROPHIL,[3],10%
same,NUCLEATED RED BLOOD CELLS,[3],0.33 /100WBC
same,PLATELET COUNT,[3],1243.67 x10E3/uL
same,ALANINE AMINOTRANSFERASE,[3],60 u/L
same,ALBUMIN,[3],4.27 G/DL
same,ALKALINE PHOSPHATASE,[3],485.33 u/L
same,ASPARTATE AMINOTRANSFERASE,[3],76.33 u/L
same,BLOOD UREA NITROGEN,[3],18.67 mg/dL
same,CARBON DIOXIDE,[3],25 mmol/L
same,CHLORIDE,[3],104.67 MEQ/L
same,CHOLESTEROL,[3],77.67 mg/dL
same,CREATINE PHOSPHOKINASE,[3],170 u/L
same,CREATININE,[3],0.26 mg/dL
same,GLUCOSE,[3],180.67 mg/dL
same,LACTATE DEHYDROGENASE,[3],87.67 u/L
same,LIPASE,[3],11 u/L
same,PHOSPHORUS,[3],13.93 mg/dL
same,POTASSIUM,[3],6.97 MEQ/L
same,SODIUM,[3],146.7 MEQ/L
same,TOTAL BILIRUBIN,[3],0.23 mg/dL
same,TOTAL PROTEIN,[3],5.97 G/DL
same,URIC ACID,[3],1.47 mg/dL

# Reference: ChEMBL document CHEMBL3885881, “DrugMatrix”
